According to patent US20060165731A1, “Vaccines” (British Technology Group Ltd., priority 1986, published 2006):

Columns and labels:
Assay type in all cases: in vivo, Eimeria (in Cobb broiler chickens)
[1] = system: seven heterologous strains of each of the seven species of Eimeria; assay: Vaccine trial in Cobb broiler chickens, heterologous challenge
Source text: (§1) The vaccine of Example 3 was used in a trial conducted on 4,480 Cobb broiler chickens kept in floor pens. The concentration of xanthan gum in the vaccine was adjusted so that administration of 140 doses of vaccine to each drinking vessel provided a final xanthan gum concentration of 0.03%. The trial was designed to compare the performance of birds vaccinated with live attenuated coccidiosis vaccine of the invention and birds fed the coccidiostat, monensin, in the face of a challenge with seven homologous or seven heterologous strains of each of the seven species of Eimeria. The heterologous strains were chosen on the basis that they were either thought to be more pathogenic than the homologous ones or antigenically distinct.
(§2) Birds were penned in groups of 140. Four pens were allocated to each treatment and two pens were allocated to each control group. […] The allocation of pens to treatment was randomised throughout the broiler house. The design of the trial was as follows:
(§3) The vaccine was administered via the drinking water. The birds were fed a ration based on a commercial formulation which included the antibiotic growth promoter avoparcin at 10 ppm. The anticoccidial drugs were administered in the feed.
(§4) It should be noted that, in order to prevent infection by wild Eimeria strains, and consequent development of immunity, the two control groups were fed robenidine (30 ppm) for 28 days. One group received a heterologous challenge and the other received a homologous challenge.
(§5) All birds received an individual oral challenge administered by inoculation into the crop on day 31. The numbers of oocysts of each species in the challenge doses were as follows:—
(§6) Liveweights and cumulative feed intakes were measured on days 30, 37 and 49. Feed conversion ratios were calculated by dividing the feed intake by the gain in liveweight from day 1. Counts of oocysts in the litter were made for each pen at weekly intervals. On day 37, a sample of 5 birds from each pen (total 160) was culled and coccidiosis lesion scores were estimated. Scores were made on a scale of 0 to 3.5 in ascending severity of the lesions symptomatic of infection with E. acervulina, E. brunetti, E. maxima/necatrix (grouped together because they are difficult to distinguish) and E. tenella. Mean lesion scores were calculated.

[2] = system: seven homologous or seven heterologous strains of each of the seven species of Eimeria; assay: Vaccine trial in Cobb broiler chickens, overall (homologous and heterologous challenge)
Source text: as §1, §2
The vaccine was administered via the drinking water. The birds were fed a ration based on a commercial formulation which included the antibiotic growth promoter avoparcin at 10 ppm. […]
Liveweights and cumulative feed intakes were measured on days 30, 37 and 49. Feed conversion ratios were calculated by dividing the feed intake by the gain in liveweight from day 1. […] Mean lesion scores were calculated.

[3] = system: seven homologous strains of each of the seven species of Eimeria; assay: Vaccine trial in Cobb broiler chickens, homologous challenge
Source text: as §1, §2, §3, §4, §5, §6

Q: How did the “Mean Lesion Score E. acervulina” value ([1]; Heterologous challenge, day 37, scale of 0 to 3.5, control 0.30) turn out when `CC[C@@]1([C@@H]2O[C@@H]([C@H]3O[C@@](O)(CO)[C@H](C)C[C@@H]3C)C[C@@H]2C)CC[C@H]([C@]2(C)CC[C@]3(C[C@H](O)[C@@H](C)[C@@H]([C@@H](C)[C@@H](OC)[C@H](C)C(=O)O)O3)O2)O1` [Monensin, monensin] was run?
A: 0.10

Q: And the “Mean Lesion Score E. brunetti” value ([1]; Heterologous challenge, day 37, scale of 0 to 3.5, control 0.70)?
A: 0

Q: What about the “Mean Lesion Score E. maxima/necatrix” value ([1]; Heterologous challenge, day 37, scale of 0 to 3.5, control 2.00) of the same compound?
A: 0.95

Q: And the “Mean Lesion Score E. tenella” value ([1]; Heterologous challenge, day 37, scale of 0 to 3.5, control 2.65)?
A: 1.53

Q: And the “Counts of oocysts in the litter, pens of monensin treated birds relative to pens of vaccinated birds” value ([1]; after challenge with heterologous strains, on average, very high pen to pen variation)?
A: two or three times higher

Q: What about the LIVEWEIGHTS ([1]; day 49, Heterologous Challenge on day 31, control 2197) of the same compound?
A: 2407 g/bird

Q: And the “Lesion scores for heterologous E. maxima/necatrix” value ([1]; in each case lower than the controls)?
A: Slightly elevated scores

Q: And the “Lesion scores after either homologous or heterologous challenge” value ([2]; compared with controls)?
A: lower lesion scores

Q: What about the “Protecting against coccidial challenge (performance of the birds, overall)” value ([2]; vaccine compared with monensin) of the same compound?
A: equally effective

Q: What about the “Mean Lesion Score E. acervulina” value ([3]; Homologous challenge, day 37, scale of 0 to 3.5, control 0.2) of the same compound?
A: 0

Q: What about the “Mean Lesion Score E. brunetti” value ([3]; Homologous challenge, day 37, scale of 0 to 3.5, control 0.40) of the same compound?
A: 0.03

Q: And the “Mean Lesion Score E. maxima/necatrix” value ([3]; Homologous challenge, day 37, scale of 0 to 3.5, control 1.25)?
A: 0.13

Q: And the “Mean Lesion Score E. tenella” value ([3]; Homologous challenge, day 37, scale of 0 to 3.5, control 2.25)?
A: 0.20

Q: What about the LIVEWEIGHTS ([3]; day 49, Homologous Challenge on day 31, control 2225) of the same compound?
A: 2489 g/bird
